In US20130296436A1, “AMIDINE COMPOUNDS AND USE THEREOF FOR PLANT DISEASE CONTROL” (SUMITOMO CHEMICAL COMPANY, LIMITED, priority 2010, published 2013):

System: Pyrenophora teres
Assay: Test Example 8: barley Pyrenophora teres, foliar application before inoculation, 50 ppm
Type: in vivo
Settings: barley (Nishinohoshi), 50 ppm foliar application, inoculated two days after, 3 days + 7 days

CCN(C)/C=N/c1cc(C)c(OCC(F)(F)C(F)(F)C(F)(F)C(F)(F)C(F)(F)F)cc1C [present compound 7]
lesion area on the treated plant relative to the area of lesions on an untreated plant: ≤ 30%
